According to PubChem BioAssay AID328 (DTP/NCI, 2004):
Where “and” joins values, the source holds several entries; their conditions need not be identical. Equal entries are not always repeated. Toxic doses and inconclusive results are not listed. Non-standard residues stand in square brackets, D forms with d. Residues, ends and D or L forms follow the SMILES beside them. ξ: configuration not given here. *: point of attachment. Boc = CC(C)(C)OC(=O)*; ξM = CSCCC(N)C(=O)O

Test system: BDF1 mice, P388 leukemia ip, median survival T/C
Assay: NCI In Vivo Anticancer Drug Screen. Data for tumor model P388 Leukemia (intraperitoneal) in B6D2F1 (BDF1) mice
Conditions: endpoint: median survival time, higher = longer survival
In short: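 Survival ratio, drug arm over vehicle arm, in mice with a transplanted tumour.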

[1] = dose: 50.0 mg/kg/injection, schedule: Q01DX005 (ip), vehicle: saline with Tween-80
[2] = dose: 100.0 mg/kg/injection, schedule: Q01DX005 (ip), vehicle: saline with Tween-80
[3] = dose: 200.0 mg/kg/injection, schedule: Q01DX005 (ip), vehicle: saline with Tween-80
[4] = dose: 50.0 mg/kg/injection, schedule: Q01DX009 (ip), vehicle: saline with Tween-80
[5] = dose: 100.0 mg/kg/injection, schedule: Q01DX009 (ip), vehicle: Klucel (hydroxypropylcellulose) (HPC)
[6] = dose: 200.0 mg/kg/injection, schedule: Q01DX009 (ip), vehicle: saline with Tween-80
[7] = dose: 400.0 mg/kg/injection, schedule: Q01DX009 (ip), vehicle: Klucel (hydroxypropylcellulose) (HPC)
[8] = dose: 100.0 mg/kg/injection, schedule: Q04DX003 (ip), vehicle: Klucel (hydroxypropylcellulose) (HPC)
[9] = dose: 200.0 mg/kg/injection, schedule: Q04DX003 (ip), vehicle: Klucel (hydroxypropylcellulose) (HPC)
[10] = dose: 400.0 mg/kg/injection, schedule: Q04DX003 (ip), vehicle: Klucel (hydroxypropylcellulose) (HPC)
[11] = dose: 100.0 mg/kg/injection, schedule: Q01DX009 (ip), vehicle: saline with Tween-80
[12] = dose: 100.0 mg/kg/injection, schedule: Q04DX003 (ip), vehicle: saline with Tween-80
[13] = dose: 200.0 mg/kg/injection, schedule: Q04DX003 (ip), vehicle: saline with Tween-80
[14] = dose: 400.0 mg/kg/injection, schedule: Q04DX003 (ip), vehicle: saline with Tween-80

`O=C1CN(CCN2CC(=O)NC(=O)C2)CC(=O)N1` was tested. Which T/C (dose: 3.12 mg/kg/injection, schedule: Q03HX024 (ip), vehicle: steriod suspending solution) did it give?
Its T/C is 105 % of control.

And the T/C (dose: 6.25 mg/kg/injection, schedule: Q03HX024 (ip), vehicle: steriod suspending solution)?
Its T/C is 117 % of control.

And the T/C (dose: 12.5 mg/kg/injection, schedule: Q01DX009 (ip), vehicle: steriod suspending solution)?
The T/C was 94 % of control.

And the T/C (dose: 12.5 mg/kg/injection, schedule: Q03HX024 (ip), vehicle: steriod suspending solution)?
The T/C was 152 % of control.

And the T/C (dose: 15.0 mg/kg/injection, schedule: Q01DX010 (ip), vehicle: saline)?
Its T/C is 314 % of control and 222 % of control.

And the T/C (dose: 25.0 mg/kg/injection, schedule: Q01DX009 (ip), vehicle: steriod suspending solution)?
Its T/C is 105 % of control.

What about the T/C (dose: 25.0 mg/kg/injection, schedule: Q03HX024 (ip), vehicle: steriod suspending solution) of the same compound?
The T/C was 152 % of control.

And the T/C (dose: 30.0 mg/kg/injection, schedule: Q01DX010 (ip), vehicle: saline)?
The T/C was 272 % of control and 176 % of control.

And the T/C (dose: 50.0 mg/kg/injection, schedule: Q03HX024 (ip), vehicle: steriod suspending solution)?
Its T/C is 123 % of control.

What about the T/C (dose: 60.0 mg/kg/injection, schedule: Q01DX010 (ip), vehicle: saline) of the same compound?
Its T/C is 118 % of control and 219 % of control.

What about the T/C (dose: 100.0 mg/kg/injection, schedule: Q01DX001 (ip), vehicle: steriod suspending solution) of the same compound?
The T/C was 100 % of control.

What about the T/C (dose: 100.0 mg/kg/injection, schedule: Q01DX009 (ip), vehicle: steriod suspending solution) of the same compound?
Its T/C is 164 % of control.

And the T/C (dose: 100.0 mg/kg/injection, schedule: Q04DX003 (ip), vehicle: steriod suspending solution)?
The T/C was 105 % of control.

And the T/C (dose: 200.0 mg/kg/injection, schedule: Q01DX001 (ip), vehicle: steriod suspending solution)?
The T/C was 105 % of control.

What about the T/C (dose: 200.0 mg/kg/injection, schedule: Q04DX003 (ip), vehicle: steriod suspending solution) of the same compound?
Its T/C is 111 % of control.

And the T/C (dose: 400.0 mg/kg/injection, schedule: Q01DX001 (ip), vehicle: steriod suspending solution)?
Its T/C is 111 % of control.

What about the T/C (dose: 800.0 mg/kg/injection, schedule: Q01DX001 (ip), vehicle: steriod suspending solution) of the same compound?
Its T/C is 117 % of control.

What about the T/C (dose: 800.0 mg/kg/injection, schedule: Q04DX003 (ip), vehicle: steriod suspending solution) of the same compound?
The T/C was 182 % of control.

How did the T/C (dose: 25.0 mg/kg/injection, schedule: Q01DX009 (ip), vehicle: saline) turn out when `COC(=O)CC(N)C(=O)OC` (configuration not stated) was run?
The T/C was 102 % of control.

And the T/C (dose: 50.0 mg/kg/injection, schedule: Q01DX009 (ip), vehicle: saline)?
Its T/C is 110 % of control.

And the T/C (dose: 100.0 mg/kg/injection, schedule: Q01DX009 (ip), vehicle: saline)?
The T/C was 103 % of control.

What does the source list for `CC(=O)Oc1cccnc1C(C#N)C(C)=O` (configuration not stated)?
T/C [1]: 90 % of control; T/C [2]: 99 % of control; T/C [3]: 87 % of control

With `NNc1cccc(Cl)n1` as the compound, how does the T/C [4] read?
The T/C was 103 % of control.

What does the source list for `[O-][n+]1c(CN2CCCCC2)nc2cccc3c2c1-c1ccccc1-3`?
T/C (dose: 12.5 mg/kg/injection, schedule: Q03HX008 (ip), vehicle: saline): 92 % of control; T/C (dose: 12.5 mg/kg/injection, schedule: Q03HX016 (ip), vehicle: saline): 100 % of control; T/C (dose: 12.5 mg/kg/injection, schedule: Q03HX024 (ip), vehicle: saline): 96 % of control; T/C (dose: 25.0 mg/kg/injection, schedule: Q01DX009 (ip), vehicle: saline with Tween-80): 105 % of control; T/C (dose: 25.0 mg/kg/injection, schedule: Q03HX008 (ip), vehicle: saline): 95 % of control; T/C (dose: 25.0 mg/kg/injection, schedule: Q03HX016 (ip), vehicle: saline): 99 % of control; T/C (dose: 25.0 mg/kg/injection, schedule: Q03HX024 (ip), vehicle: saline): 93 % of control; T/C (dose: 50.0 mg/kg/injection, schedule: Q01DX009 (ip), vehicle: Klucel (hydroxypropylcellulose) (HPC)): 116 % of control; T/C [4]: 108 % of control and 116 % of control; T/C (dose: 50.0 mg/kg/injection, schedule: Q03HX008 (ip), vehicle: saline): 95 % of control; T/C (dose: 50.0 mg/kg/injection, schedule: Q03HX016 (ip), vehicle: saline): 94 % of control; T/C (dose: 50.0 mg/kg/injection, schedule: Q03HX024 (ip), vehicle: saline): 110 % of control; T/C (dose: 50.0 mg/kg/injection, schedule: Q08HX027 (ip), vehicle: saline): 113 % of control; T/C [5]: 100 % of control; T/C (dose: 100.0 mg/kg/injection, schedule: Q03HX008 (ip), vehicle: saline): 92 % of control; T/C (dose: 100.0 mg/kg/injection, schedule: Q03HX016 (ip), vehicle: saline): 90 % of control; T/C (dose: 100.0 mg/kg/injection, schedule: Q03HX024 (ip), vehicle: saline): 115 % of control; T/C (dose: 100.0 mg/kg/injection, schedule: Q08HX027 (ip), vehicle: saline): 119 % of control; T/C (dose: 150.0 mg/kg/injection, schedule: Q01DX009 (oral), vehicle: saline): 91 % of control; T/C [6]: 158 % of control; T/C (dose: 200.0 mg/kg/injection, schedule: Q01DX009 (ip), vehicle: saline): 222 % of control; T/C (dose: 300.0 mg/kg/injection, schedule: Q01DX009 (oral), vehicle: saline): 95 % of control; T/C [7]: 151 % of control; T/C (dose: 400.0 mg/kg/injection, schedule: Q01DX009 (oral), vehicle: saline): 98 % of control; T/C (dose: 600.0 mg/kg/injection, schedule: Q01DX009 (oral), vehicle: saline): 103 % of control

With `O=c1ccccn1C/C(=N\O)c1ccccc1` as the compound, how does the T/C [5] read?
The T/C was 95 % of control.

What about the T/C [8] of the same compound?
The T/C was 100 % of control.

What about the T/C (dose: 200.0 mg/kg/injection, schedule: Q01DX009 (ip), vehicle: Klucel (hydroxypropylcellulose) (HPC)) of the same compound?
Its T/C is 95 % of control.

And the T/C [9]?
The T/C was 95 % of control.

What about the T/C [7] of the same compound?
The T/C was 100 % of control.

And the T/C [10]?
Its T/C is 100 % of control.

How did the T/C (dose: 0.92 mg/kg/injection, schedule: Q04DX003 (ip), vehicle: saline) turn out when `BrCc1ccc2c3c(ccc(CBr)c13)CC2` was run?
The T/C was 113 % of control.

What about the T/C (dose: 3.1 mg/kg/injection, schedule: Q04DX003 (ip), vehicle: saline) of the same compound?
The T/C was 120 % of control.

And the T/C (dose: 17.0 mg/kg/injection, schedule: Q04DX003 (ip), vehicle: Klucel (hydroxypropylcellulose) (HPC))?
Its T/C is 154 % of control.

And the T/C (dose: 25.0 mg/kg/injection, schedule: Q01DX009 (ip), vehicle: Klucel (hydroxypropylcellulose) (HPC))?
Its T/C is 118 % of control.

And the T/C (dose: 75.0 mg/kg/injection, schedule: Q01DX009 (ip), vehicle: Klucel (hydroxypropylcellulose) (HPC))?
Its T/C is 118 % of control.

What about the T/C [5] of the same compound?
Its T/C is 95 % of control.

What about the T/C [8] of the same compound?
The T/C was 150 % of control.

What about the T/C [9] of the same compound?
The T/C was 154 % of control.

What about the T/C (dose: 300.0 mg/kg/injection, schedule: Q04DX003 (ip), vehicle: Klucel (hydroxypropylcellulose) (HPC)) of the same compound?
Its T/C is 87 % of control and 100 % of control.

What about the T/C (dose: 300.0 mg/kg/injection, schedule: Q04DX003 (ip), vehicle: saline) of the same compound?
Its T/C is 118 % of control.

And the T/C [10]?
Its T/C is 122 % of control.

Which results are given for `S=c1[nH]nc(-c2ccncc2)n1C1CCCCC1`?
T/C (dose: 50.0 mg/kg/injection, schedule: Q04DX002 (ip), vehicle: saline with Tween-80): 96 % of control; T/C (dose: 100.0 mg/kg/injection, schedule: Q04DX002 (ip), vehicle: saline with Tween-80): 92 % of control; T/C (dose: 200.0 mg/kg/injection, schedule: Q04DX002 (ip), vehicle: saline with Tween-80): 97 % of control

What does the source list for `Cc1ccc(C)c(C(=O)C2CC2)c1`?
T/C (dose: 50.0 mg/kg/injection, schedule: Q04DX003 (ip), vehicle: saline with Tween-80): 100 % of control; T/C [11]: 100 % of control; T/C [12]: 120 % of control; T/C (dose: 150.0 mg/kg/injection, schedule: Q01DX009 (ip), vehicle: saline with Tween-80): 103 % of control; T/C [6]: 110 % of control; T/C [13]: 100 % of control

Which results are given for `Nc1cc(C(F)(F)F)ccc1S(=O)(=O)O`?
T/C (dose: 100.0 mg/kg/injection, schedule: Q01DX001 (ip), vehicle: Klucel (hydroxypropylcellulose) (HPC)): 100 % of control; T/C (dose: 200.0 mg/kg/injection, schedule: Q01DX001 (ip), vehicle: Klucel (hydroxypropylcellulose) (HPC)): 100 % of control; T/C (dose: 400.0 mg/kg/injection, schedule: Q01DX001 (ip), vehicle: Klucel (hydroxypropylcellulose) (HPC)): 100 % of control

How did the T/C [4] turn out when `O=C(c1cccs1)c1cccs1` was run?
The T/C was 101 % of control.

And the T/C [11]?
The T/C was 108 % of control.

And the T/C [12]?
The T/C was 102 % of control.

And the T/C [6]?
Its T/C is 92 % of control.

What about the T/C [13] of the same compound?
The T/C was 90 % of control.

And the T/C (dose: 400.0 mg/kg/injection, schedule: Q01DX009 (ip), vehicle: saline with Tween-80)?
The T/C was 99 % of control.

And the T/C [14]?
The T/C was 112 % of control.

For `OC(CBr)c1ccc(Cl)cc1` (configuration not stated), which T/C [12] is on record?
The T/C was 100 % of control.

And the T/C [13]?
Its T/C is 95 % of control.

And the T/C [14]?
The T/C was 95 % of control.

With `CSCCC(NC(=O)CNC(=O)OC(C)(C)C)C(=O)NCC(=O)O` (stereo not drawn) (Boc-Gly-[ξM]-Gly-OH) as the compound, how does the T/C [1] read?
Its T/C is 98 % of control.

What about the T/C [2] of the same compound?
The T/C was 95 % of control.

And the T/C [3]?
Its T/C is 95 % of control.
